In patent publication US4487768A, “Cephem compounds” (Fujisawa Pharmaceutical Co., Ltd., priority 1982, dated 1984):
Values after ≈ are worked out from the molar mass of the structure shown.

How the values were obtained:
[1] = system: Proteus mirabilis 18; test: Minimal inhibitory concentration, two-fold agar-plate dilution method; format: cell-based; conditions: HI-agar, 37° C., 20 hours, 10^8 viable cells per ml
Procedure: (§1) (A) Minimal inhibitory concentration 1 Test Method In vitro antibacterial activity was determined by the two-fold agar-plate dilution method as described below. One loopful of an overnight culture of each test strain in Trypticase-soy broth (10^8 viable cells per ml) was streaked on heart infusion agar (HI-agar) containing graded concentrations of representative test compound, and the minimal inhibitory concentration (MIC) was expressed in tems of μg/ml after incubation at 37° C. for 20 hours.

[2] = system: Proteus vulgaris 2; test: as above; format: cell-based; conditions: HI-agar, 37° C., 20 hours, 10^8 viable cells per ml
Procedure: as §1

[3] = Urinary excretion in rats after oral administration; format: in vivo; conditions: rat, oral 100 mg/kg, urine 0 to 6 and 6 to 24 hours, bioassay, read-out: Urinary recovery in 24 hours (%)
Procedure: Urine of rats was collected with a urine collector at 0 to 6, and 6 to 24 hours after oral administration of 100 mg/kg of the test antibiotic. The antibiotic levels in the urine samples were bioassayed with the standard solution prepared with M/15 phosphate buffer (pH 7.0) and the urinary recovery in 24 hours was calculated.

[4] = in vivo; conditions: rat, po, 100 mg/kg
Procedure: Rats anesthetized with pentobarbital were fixed in supine position, and a polyethylene cannula was inserted into the bile duct. Bile samples were collected at 0 to 3, 3 to 6, and 6 to 24 hours after oral administration of 100 mg/kg of the test antibiotic. The antibiotic levels in the bile samples were bioassayed with the standard solutions prepared with M/15 phosphate buffer (pH 7.0) and the biliary recovery in 24 hours were calculated.

**Q.** With `[N-]=[N+]=NCC1=C(C(=O)O)N2C(=O)C(NC(=O)/C(=N\OCC(=O)O)c3nsc(N)n3)C2SC1` (stereo not drawn) [Test Compound (1), 7-[2-Carboxymethoxyimino-2-(5-amino-1,2,4-thiadiazol-3-yl)acetamido]-3-azidomethyl-3-cephem-4-carboxylic acid (syn isomer)] as the compound, how does the MIC [1] read?
**A.** 0.05 µg/mL (≈ 0.103 µM)

**Q.** And the MIC [2]?
**A.** 0.1 µg/mL (≈ 0.207 µM)

**Q.** And the dose excreted at 24 h [3]?
**A.** 26.6%

**Q.** What about the dose excreted at 24 h [4] of the same compound?
**A.** 4.72%
